Assay results as given in patent publication EP0558104B1, “1,5-Benzodiazepine derivatives and their use in medicine” (GLAXO WELLCOME S.p.A., priority 1992, dated 1993).
Read-outs that look alike come from different tables or passages of the source.

How the values were obtained:
CCK-B receptor = CCK-B receptor (Cavia porcellus, UniProt H0VZC5); assay: CCK receptor binding, guinea pig cortex assay; parameters: CCK-B receptor (guinea pig cortex assay); from tissue; host or cells: guinea pig cortex
Protocol: The greater affinity of the compounds of the invention for the CCK-B receptor over the CCK-A receptor has also been established using the CCK receptor binding assays described by G Dal Fornos et al., J. Pharmcol. Exp & Ther. 261, 1056-1063, 1992.
The binding affinity of the compounds of the invention for the CCK-A receptor (Pancreas Assay) and CCK-B receptor (guinea pig cortex assay) was determined using the procedure of G Dal Forno et al J. Pharmacol. Exp & Ther. 261 - 1056-1063. The pKi values determined with respresentative compounds of invention were as follows: […]

CCK-A receptors = target: T1, CCK-A receptors (Cavia porcellus, UniProt Q63931); assay: CCK-A antagonist activity, guinea pig isolated ileum longitudinal muscle myenteric plexus preparation; assay type: cell-based
T1 construct: guinea pig isolated ileum longitudinal muscle myenteric plexus preparation; from tissue; host or cells: guinea pig isolated ileum longitudinal muscle-myenteric plexus
T1 sequence (Q63931 1-430): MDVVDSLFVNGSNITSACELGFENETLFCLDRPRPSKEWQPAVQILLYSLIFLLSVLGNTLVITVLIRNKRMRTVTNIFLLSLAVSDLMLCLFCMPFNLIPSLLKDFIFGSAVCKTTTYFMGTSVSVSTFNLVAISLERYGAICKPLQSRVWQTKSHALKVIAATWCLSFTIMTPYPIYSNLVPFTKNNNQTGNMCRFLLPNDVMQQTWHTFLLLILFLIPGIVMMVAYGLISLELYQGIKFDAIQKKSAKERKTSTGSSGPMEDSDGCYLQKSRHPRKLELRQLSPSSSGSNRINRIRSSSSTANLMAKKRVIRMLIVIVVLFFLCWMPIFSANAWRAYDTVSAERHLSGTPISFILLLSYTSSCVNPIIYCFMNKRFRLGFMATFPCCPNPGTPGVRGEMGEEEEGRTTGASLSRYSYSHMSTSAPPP
Protocol: The preparation and use of guinea-pig isolated ileum longitudinal muscle-myenteric plexus has been described by K-H Buchheit et al in Nauyn-Schmeideberg's Arch. Pharmacol, (1985), 329, p3641 and by V.L. Lucaites et al (1991) in J. Pharmacol. Exp. Ther., 256, 695-703.
The CCK-A antagonist and CCK-B antagonist activites of compounds of the invention were determined using the guinea pig isolated ileum longitudinal muscle myenteric plexus preparation. The compounds were tested using the procedure G Dal Forno et al J. Pharmacol. Exp & Ther. 261 - 1056-1063 1992 and the pKb value for each compound was determined.

mice [1] = assay: Tolerability after oral administration to mice; assay type: in vivo; conditions: given orally to mice at doses at which the compound exhibits anxiolytic activity
Source text: (§1) The compounds of the invention are essentially non-toxic and therapeutically useful doses.

mice [2] = assay: Anxiolytic activity in mice (black-white box test); assay type: in vivo
Source text: (§2) For example in mice in the black-white box test and in the rat social interaction model.

rat = assay: Anxiolytic activity in rats (rat social interaction model); assay type: in vivo
Source text: as §2

rats = assay: Tolerability after oral administration to rats; assay type: in vivo; conditions: given orally to rats at doses at which the compound exhibits anxiolytic activity
Source text: as §1

[3] = guinea pig isolated ileum longitudinal muscle myenteric plexus, inhibition of contractile activity of CCK-8, read-out: pKb CCK-A (converted)

CCK-B receptor, sequence (H0VZC5 entry or part of it): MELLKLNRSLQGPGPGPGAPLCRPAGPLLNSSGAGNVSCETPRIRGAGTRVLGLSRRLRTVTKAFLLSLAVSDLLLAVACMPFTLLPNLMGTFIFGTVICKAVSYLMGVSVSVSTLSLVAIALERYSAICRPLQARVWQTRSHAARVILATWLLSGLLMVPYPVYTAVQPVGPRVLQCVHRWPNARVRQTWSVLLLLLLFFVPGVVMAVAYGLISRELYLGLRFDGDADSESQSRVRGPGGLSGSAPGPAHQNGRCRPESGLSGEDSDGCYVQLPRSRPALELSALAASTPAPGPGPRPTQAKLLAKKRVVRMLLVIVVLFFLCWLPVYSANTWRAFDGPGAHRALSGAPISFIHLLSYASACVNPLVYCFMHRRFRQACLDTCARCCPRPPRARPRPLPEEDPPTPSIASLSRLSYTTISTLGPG

Q: What does the source list for `CC(C)CCN1C(=O)C(NC(=O)Nc2cccc(N(C)C)c2)C(=O)N(c2ccccc2F)c2ccccc21` (centres unmarked) [Example 4, N-[2,4-dioxo-5-(2-fluorophenyl)-1-(3-methylbut-1-yl)-2,3,4,5-tetrahydro-1H-1,5-benzodiazepin-3-yl]-N'-(3-dimethylamino)phenylurea]?
A: Ki (CCK-B receptor): 0.251 nM; Kb (CCK-A receptors; [3]): 3160 nM

Q: How did the Ki (CCK-B receptor) turn out when `CC(C)CCN1C(=O)C(NC(=O)Nc2ccccc2)C(=O)N(c2ccccc2)c2cc(Cl)ccc21` (centres unmarked) [Example 9, N-[7-Chloro-2,4-dioxo-1-(3-methylbut-1-yl)-5-phenyl-2,3,4,5-tetrahydro-1H-1,5-benzodiazepin-3-yl]-N'-phenylurea] was run?
A: The Ki was 4.9 nM.

Q: For `CC(C)CCN1C(=O)C(NC(=O)Nc2ccccc2)C(=O)N(c2ccccc2)c2ccccc21` (centres unmarked) [Example 25, N-[2,4-Dioxo-5-phenyl-1-(3-methylbut-1-yl)-2,3,4,5-tetrahydro-1H-1,5-benzodiazepin-3-yl]-N'-phenylurea], which Kb (CCK-A receptors; [3]) is on record?
A: The Kb was > 1000 nM.

Q: Which Ki (CCK-B receptor) does the source give for `CC(C)CCN1C(=O)C(NC(=O)Nc2ccccc2)C(=O)N(c2ccccc2)c2cc(Cl)c(Cl)cc21` (centres unmarked) [Example 11, N-[7,8-dichloro-2,4-Dioxo-1-(3-methylbut-1-yl)-5-phenyl-2,3,4,5-tetrahydro-1H-1,5-benzodiazepin-3-yl]-N'-phenylurea] here?
A: The Ki was 9.77 nM.

Q: `CCOC(=O)c1cccc(NC(=O)NC2C(=O)N(CC34CC5CC(CC(C5)C3)C4)c3ccccc3N(c3ccccc3)C2=O)c1` (centres unmarked) [Example 41, N-[1-(1-Adamantylmethyl)-2,4-dioxo-5-phenyl-2,3,4,5-tetrahydro-1H-1,5-benzodiazepin-3-yl]-N'-(3-ethoxycarbonylphenyl)urea] was tested. Which Ki (CCK-B receptor) did it give?
A: The Ki was 2.95 nM.

Q: For `CC(C)(C)CCN1C(=O)C(NC(=O)Nc2ccccc2)C(=O)N(c2ccccc2)c2ccccc21` (centres unmarked) [Example 16, N-[1-(3,3-Dimethylbutyl)-2,4-dioxo-5-phenyl-2,3,4,5-tetrahydro-1H-1,5-benzodiazepin-3-yl]-N'-phenylurea], which Ki (CCK-B receptor) is on record?
A: The Ki was 0.676 nM.

Q: For `CN(C)c1ccc(NC(=O)NC2C(=O)N(CCC3CCCC3)c3ccccc3N(c3ccccc3F)C2=O)cc1` (centres unmarked) [Example 30, N-[1-(2-cyclopentyl-ethyl)-2,4-dioxo-5-(2-fluorophenyl)-2,3,4,5-tetrahydro-1H-1,5-benzodiazepin-3-yl]-N'-[4-(dimethylamino)phenyl]urea], which Ki (CCK-B receptor) is on record?
A: The Ki was 0.724 nM.

Q: `O=C(Nc1ccccc1)NC1C(=O)N(CC23CC4CC(CC(C4)C2)C3)c2ccccc2N(c2ccccc2)C1=O` (centres unmarked) [Example 14, N-[1-(1-Adamantyl)methyl-2,4-dioxo-5-phenyl-2,3,4,5-tetrahydro-1H-1,5-benzodiazepin-3-yl]-N'-phenylurea] was tested. Which Kb (CCK-A receptors) did it give?
A: The Kb was 158 nM.

Q: With `CC(C)(C)C(O)CN1C(=O)C(NC(=O)Nc2ccccc2)C(=O)N(c2ccccc2F)c2ccccc21` (centres unmarked) [Example 7A, N-[1-(3,3-Dimethyl-2-hydroxybut-1-yl)-2,4-dioxo-5-(2-fluorophenyl)-2,3,4,5-tetrahydro-1H-1,5-benzodiazepin-3-yl]-N'-phenylurea] as the molecule, how does the Ki (CCK-B receptor) read?
A: Its Ki is 1.95 nM.

Q: With `O=C(Nc1ccccc1)NC1C(=O)N(CC23CC4CC(CC(C4)C2)C3)c2ccccc2N(c2ccccc2)C1=O` (single isomer, unassigned; (+)) [Example 45, (+)-N-[1-(Adamantanmethyl)-2,4-dioxo-5-phenyl-2,3,4,5-tetrahydro-1H-1,5benzodiazepin-3-yl]-N'-phenylurea] as the molecule, how does the untoward effects (mice [1]) read?
A: The untoward effects was “no untoward effects”.

Q: And the anxiolytic activity (mice [2])?
A: The anxiolytic activity was “exhibits anxiolytic activity”.

Q: What about the anxiolytic activity (rat) of the same molecule?
A: The anxiolytic activity was “exhibits anxiolytic activity”.

Q: What about the untoward effects (rats) of the same molecule?
A: The untoward effects was “no untoward effects”.

Q: What about the Kb (CCK-A receptors) of the same molecule?
A: The Kb was 1260 nM.

Q: `O=C(Nc1cccc([N+](=O)[O-])c1)NC1C(=O)N(CC23CC4CC(CC(C4)C2)C3)c2ccccc2N(c2ccccc2)C1=O` (centres unmarked) [Example 39, N-[1-(1-Adamantylmethyl)-2,4-dioxo-5-phenyl-2,3,4,5-tetrahydro-1H-1,5-benzodiazepin-3-yl]-N'-(3-nitrophenyl)urea] was tested. Which Ki (CCK-B receptor) did it give?
A: The Ki was 1.91 nM.

Q: For `O=C(Nc1ccccc1)NC1C(=O)N(CC2CC3C=CC2C3)c2ccccc2N(c2ccccc2)C1=O` (centres unmarked) [Example 31, N-[1-(Bicyclo [2.2.1]-5-heptene-2-ylmethyl)-2,4-dioxo-5-phenyl-2,3,4,5-tetrahydro-1H-1,5-benzodiazepin-3yl]-N'-phenylurea], which Ki (CCK-B receptor) is on record?
A: The Ki was 1.51 nM.
